{"source": "PubChem BioAssay AID2060509", "about": "(Molecular Pharmacology Branch, DTP, NCI, 2025)", "system": "485176-168-R4-J1-PDC spheroids with HUVEC/MSC, viability", "assay": "Anticancer human tumor 485176-168-R4-J1-PDC patient-derived pancreatic adenocarcinoma cell line growth inhibition [GQUAD]", "conditions": "for IC50: curve of first compound; for viability, T/C: stronger effect = lower value", "summary_of_the_method": "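Tumor cells were grown as complex spheroids with HUVEC endothelial cells and mesenchymal stem cells as stroma. G-quadruplex stabilizers were combined with targeted agents over half-log dilutions from near the clinical Cmax, or from 10 microM.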", "key": {"[1]": {"conditions": "second compound 0.0316 µM, first compound 0.0316 µM"}, "[2]": {"conditions": "second compound 0.0316 µM, first compound 0.1 µM"}, "[3]": {"conditions": "second compound 0.0316 µM, first compound 0.316 µM"}, "[4]": {"conditions": "second compound 0.0316 µM, first compound 1 µM"}, "[5]": {"conditions": "second compound 0.0316 µM, first compound 3.16 µM"}, "[6]": {"conditions": "second compound 0.0316 µM, first compound 10 µM"}, "[7]": {"conditions": "second compound 0.1 µM, first compound 0.0316 µM"}, "[8]": {"conditions": "second compound 0.1 µM, first compound 0.1 µM"}, "[9]": {"conditions": "second compound 0.1 µM, first compound 0.316 µM"}, "[10]": {"conditions": "second compound 0.1 µM, first compound 1 µM"}, "[11]": {"conditions": "second compound 0.1 µM, first compound 3.16 µM"}, "[12]": {"conditions": "second compound 0.1 µM, first compound 10 µM"}, "[13]": {"conditions": "second compound 0.316 µM, first compound 0.0316 µM"}, "[14]": {"conditions": "second compound 0.316 µM, first compound 0.1 µM"}, "[15]": {"conditions": "second compound 0.316 µM, first compound 0.316 µM"}, "[16]": {"conditions": "second compound 0.316 µM, first compound 1 µM"}, "[17]": {"conditions": "second compound 0.316 µM, first compound 3.16 µM"}, "[18]": {"conditions": "second compound 0.316 µM, first compound 10 µM"}, "[19]": {"conditions": "second compound 1 µM, first compound 0.0316 µM"}, "[20]": {"conditions": "second compound 1 µM, first compound 0.1 µM"}, "[21]": {"conditions": "second compound 1 µM, first compound 0.316 µM"}, "[22]": {"conditions": "second compound 1 µM, first compound 1 µM"}, "[23]": {"conditions": "second compound 1 µM, first compound 3.16 µM"}, "[24]": {"conditions": "second compound 1 µM, first compound 10 µM"}, "[25]": {"conditions": "second compound 3.16 µM, first compound 0.0316 µM"}, "[26]": {"conditions": "second compound 3.16 µM, first compound 0.1 µM"}, "[27]": {"conditions": "second compound 3.16 µM, first compound 0.316 µM"}, "[28]": {"conditions": "second compound 3.16 µM, first compound 1 µM"}, "[29]": {"conditions": "second compound 3.16 µM, first compound 3.16 µM"}, "[30]": {"conditions": "second compound 3.16 µM, first compound 10 µM"}, "[31]": {"conditions": "second compound 10 µM, first compound 0.0316 µM"}, "[32]": {"conditions": "second compound 10 µM, first compound 0.1 µM"}, "[33]": {"conditions": "second compound 10 µM, first compound 0.316 µM"}, "[34]": {"conditions": "second compound 10 µM, first compound 1 µM"}, "[35]": {"conditions": "second compound 10 µM, first compound 3.16 µM"}, "[36]": {"conditions": "second compound 10 µM, first compound 10 µM"}}}
{"molecule": "CC1COCCN1c1cc(-c2ccnn2C)c2ccnc(-c3ccn[nH]3)c2n1", "note": "(centres undefined) + Cc1[nH]c2ccc(F)cc2c1-c1nc2c3cccnc3c3ncccc3c2[nH]1;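 further: spheroids exposed to compounds for seven days before readout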;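 on viability, T/C: percent viability relative to DMSO vehicle control wells as 100%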", "values": [{"measurement": "IC50", "setting": "second compound 0.0316 µM", "result": 0.062, "unit": "µM"}, {"measurement": "IC50", "setting": "second compound 0.1 µM", "result": 0.0854, "unit": "µM"}, {"measurement": "IC50", "setting": "second compound 0.316 µM", "result": 0.0771, "unit": "µM"}, {"measurement": "IC50", "setting": "second compound 1 µM", "result": 0.0572, "unit": "µM"}, {"measurement": "IC50", "setting": "second compound 3.16 µM", "result": 0.0642, "unit": "µM"}, {"measurement": "IC50", "setting": "second compound 10 µM", "result": 0.0698, "unit": "µM"}, {"measurement": "viability, T/C", "setting": "[1]", "result": 71.8, "unit": "%"}, {"measurement": "viability, T/C", "setting": "[2]", "result": 34.2, "unit": "%"}, {"measurement": "viability, T/C", "setting": "[3]", "result": 19.2, "unit": "%"}, {"measurement": "viability, T/C", "setting": "[4]", "result": 10.6, "unit": "%"}, {"measurement": "viability, T/C", "setting": "[5]", "result": 10.7, "unit": "%"}, {"measurement": "viability, T/C", "setting": "[6]", "result": 11.7, "unit": "%"}, {"measurement": "viability, T/C", "setting": "[7]", "result": 60.5, "unit": "%"}, {"measurement": "viability, T/C", "setting": "[8]", "result": 48.3, "unit": "%"}, {"measurement": "viability, T/C", "setting": "[9]", "result": 16.8, "unit": "%"}, {"measurement": "viability, T/C", "setting": "[10]", "result": 10.9, "unit": "%"}, {"measurement": "viability, T/C", "setting": "[11]", "result": 11.1, "unit": "%"}, {"measurement": "viability, T/C", "setting": "[12]", "result": 13.2, "unit": "%"}, {"measurement": "viability, T/C", "setting": "[13]", "result": 67, "unit": "%"}, {"measurement": "viability, T/C", "setting": "[14]", "result": 45, "unit": "%"}, {"measurement": "viability, T/C", "setting": "[15]", "result": 18.7, "unit": "%"}, {"measurement": "viability, T/C", "setting": "[16]", "result": 10.4, "unit": "%"}, {"measurement": "viability, T/C", "setting": "[17]", "result": 12.3, "unit": "%"}, {"measurement": "viability, T/C", "setting": "[18]", "result": 11.3, "unit": "%"}, {"measurement": "viability, T/C", "setting": "[19]", "result": 61.1, "unit": "%"}, {"measurement": "viability, T/C", "setting": "[20]", "result": 39.5, "unit": "%"}, {"measurement": "viability, T/C", "setting": "[21]", "result": 19.1, "unit": "%"}, {"measurement": "viability, T/C", "setting": "[22]", "result": 10.3, "unit": "%"}, {"measurement": "viability, T/C", "setting": "[23]", "result": 10.6, "unit": "%"}, {"measurement": "viability, T/C", "setting": "[24]", "result": 9.82, "unit": "%"}, {"measurement": "viability, T/C", "setting": "[25]", "result": 64.9, "unit": "%"}, {"measurement": "viability, T/C", "setting": "[26]", "result": 40.6, "unit": "%"}, {"measurement": "viability, T/C", "setting": "[27]", "result": 15.8, "unit": "%"}, {"measurement": "viability, T/C", "setting": "[28]", "result": 9.36, "unit": "%"}, {"measurement": "viability, T/C", "setting": "[29]", "result": 11.8, "unit": "%"}, {"measurement": "viability, T/C", "setting": "[30]", "result": 12, "unit": "%"}, {"measurement": "viability, T/C", "setting": "[31]", "result": 70.3, "unit": "%"}, {"measurement": "viability, T/C", "setting": "[32]", "result": 40.7, "unit": "%"}, {"measurement": "viability, T/C", "setting": "[33]", "result": 18.2, "unit": "%"}, {"measurement": "viability, T/C", "setting": "[34]", "result": 10.9, "unit": "%"}, {"measurement": "viability, T/C", "setting": "[35]", "result": 11.2, "unit": "%"}, {"measurement": "viability, T/C", "setting": "[36]", "result": 11.4, "unit": "%"}]}
{"molecule": "CC1COCCN1c1cc(C2(S(C)(=N)=O)CC2)nc(-c2ccnc3[nH]ccc23)n1", "note": "(centres undefined) + Cc1[nH]c2ccc(F)cc2c1-c1nc2c3cccnc3c3ncccc3c2[nH]1", "values": [{"measurement": "IC50", "setting": "second compound 0.0316 µM", "result": 1.35, "unit": "µM"}, {"measurement": "IC50", "setting": "second compound 0.1 µM", "result": 1.84, "unit": "µM"}, {"measurement": "IC50", "setting": "second compound 0.316 µM", "result": 1.83, "unit": "µM"}, {"measurement": "IC50", "setting": "second compound 1 µM", "result": 1.91, "unit": "µM"}, {"measurement": "IC50", "setting": "second compound 3.16 µM", "result": 1.26, "unit": "µM"}, {"measurement": "IC50", "setting": "second compound 10 µM", "result": 1.24, "unit": "µM"}, {"measurement": "viability, T/C", "setting": "[1]", "result": 110, "unit": "%"}, {"measurement": "viability, T/C", "setting": "[2]", "result": 90.4, "unit": "%"}, {"measurement": "viability, T/C", "setting": "[3]", "result": 97.8, "unit": "%"}, {"measurement": "viability, T/C", "setting": "[4]", "result": 53.6, "unit": "%"}, {"measurement": "viability, T/C", "setting": "[5]", "result": 32, "unit": "%"}, {"measurement": "viability, T/C", "setting": "[6]", "result": 15.5, "unit": "%"}, {"measurement": "viability, T/C", "setting": "[7]", "result": 89.4, "unit": "%"}, {"measurement": "viability, T/C", "setting": "[8]", "result": 103, "unit": "%"}, {"measurement": "viability, T/C", "setting": "[9]", "result": 85.5, "unit": "%"}, {"measurement": "viability, T/C", "setting": "[10]", "result": 69.9, "unit": "%"}, {"measurement": "viability, T/C", "setting": "[11]", "result": 32.7, "unit": "%"}, {"measurement": "viability, T/C", "setting": "[12]", "result": 16.4, "unit": "%"}, {"measurement": "viability, T/C", "setting": "[13]", "result": 88.3, "unit": "%"}, {"measurement": "viability, T/C", "setting": "[14]", "result": 103, "unit": "%"}, {"measurement": "viability, T/C", "setting": "[15]", "result": 84.8, "unit": "%"}, {"measurement": "viability, T/C", "setting": "[16]", "result": 66.9, "unit": "%"}, {"measurement": "viability, T/C", "setting": "[17]", "result": 35.2, "unit": "%"}, {"measurement": "viability, T/C", "setting": "[18]", "result": 14.1, "unit": "%"}, {"measurement": "viability, T/C", "setting": "[19]", "result": 92, "unit": "%"}, {"measurement": "viability, T/C", "setting": "[20]", "result": 97.3, "unit": "%"}, {"measurement": "viability, T/C", "setting": "[21]", "result": 96.5, "unit": "%"}, {"measurement": "viability, T/C", "setting": "[22]", "result": 66.7, "unit": "%"}, {"measurement": "viability, T/C", "setting": "[23]", "result": 36.4, "unit": "%"}, {"measurement": "viability, T/C", "setting": "[24]", "result": 13.7, "unit": "%"}, {"measurement": "viability, T/C", "setting": "[25]", "result": 83.5, "unit": "%"}, {"measurement": "viability, T/C", "setting": "[26]", "result": 89.9, "unit": "%"}, {"measurement": "viability, T/C", "setting": "[27]", "result": 75.5, "unit": "%"}, {"measurement": "viability, T/C", "setting": "[28]", "result": 57.6, "unit": "%"}, {"measurement": "viability, T/C", "setting": "[29]", "result": 24.7, "unit": "%"}, {"measurement": "viability, T/C", "setting": "[30]", "result": 14.7, "unit": "%"}, {"measurement": "viability, T/C", "setting": "[31]", "result": 84.7, "unit": "%"}, {"measurement": "viability, T/C", "setting": "[32]", "result": 104, "unit": "%"}, {"measurement": "viability, T/C", "setting": "[33]", "result": 80.9, "unit": "%"}, {"measurement": "viability, T/C", "setting": "[34]", "result": 55.6, "unit": "%"}, {"measurement": "viability, T/C", "setting": "[35]", "result": 26.4, "unit": "%"}, {"measurement": "viability, T/C", "setting": "[36]", "result": 13.8, "unit": "%"}]}
